PubChem BioAssay AID192 (DTP/NCI, 2004)
Values joined by “and” are separate entries in the source; they are usually repeats but may differ in a detail not shown here. Identical values can stand only once. Inconclusive results and toxic doses are left out. The calls were made as follows: active = survival T/C of 150% or more; inactive = T/C below 125% in these data.

Test system: BDF1 mice, B16 melanoma ip, median survival T/C
Experiment: NCI In Vivo Anticancer Drug Screen. Data for tumor model B16 Melanoma (intraperitoneal) in B6D2F1 (BDF1) mice
Details: endpoint: median survival time, schedule: Q01DX009 (ip), higher = longer survival
Summary of the method: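 Tumor-bearing mice received test compound or vehicle. Survival or tumor size was then measured in both groups. The treated-group figure was divided by the control-group figure.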

[1] = dose: 100.0 mg/kg/injection, vehicle: Klucel (hydroxypropylcellulose) (HPC)
[2] = dose: 200.0 mg/kg/injection, vehicle: Klucel (hydroxypropylcellulose) (HPC)
[3] = dose: 400.0 mg/kg/injection, vehicle: Klucel (hydroxypropylcellulose) (HPC)
[4] = dose: 25.0 mg/kg/injection, vehicle: saline
[5] = dose: 50.0 mg/kg/injection, vehicle: saline
[6] = dose: 25.0 mg/kg/injection, vehicle: distilled water + Tween-80
[7] = dose: 100.0 mg/kg/injection, vehicle: saline with Tween-80
[8] = dose: 200.0 mg/kg/injection, vehicle: saline with Tween-80

Measured: T/C

O=C1C2CC=CCC2C(=O)N1SC(Cl)(Cl)Cl (stereo unspecified)
inactive: dose: 0.2 mg/kg/injection, vehicle: saline with Tween-80 98 % of control | dose: 0.4 mg/kg/injection, vehicle: saline with Tween-80 100 % of control | dose: 0.8 mg/kg/injection, vehicle: saline with Tween-80 97 % of control | dose: 3.13 mg/kg/injection, vehicle: saline with Tween-80 88 % of control

COc1ccc(C(OC2OC(n3cnc4c(=S)nc(N)[nH]c43)CC2OC(C)=O)(c2ccccc2)c2ccc(OC)cc2)cc1 (stereo unspecified)
inactive: [1] 90 % of control | [2] 96 % of control | [3] 93 % of control

Cc1cn(C2CC3[O][Sn]([c]4ccccc4)([c]4ccccc4)[O]CC3O2)c(=O)[nH]c1=O (stereo unspecified)
inactive: dose: 6.25 mg/kg/injection, vehicle: saline 91 % of control | dose: 12.5 mg/kg/injection, vehicle: saline 93 % of control and 117 % of control | [4] 94 % of control and 124 % of control | [5] 98 % of control

CCOC(=O)c1ccc(NC(=O)Nc2nncs2)cc1
inactive: dose: 6.25 mg/kg/injection, vehicle: distilled water + Tween-80 93 % of control | dose: 12.5 mg/kg/injection, vehicle: distilled water + Tween-80 112 % of control | [6] 95 % of control | dose: 50.0 mg/kg/injection, vehicle: distilled water + Tween-80 98 % of control

Cc1cc(Cl)ccc1NC(=O)c1ccccc1
inactive: [1] 103 % of control | [2] 99 % of control | [3] 100 % of control

CC1CNC(=O)O1 (stereo unspecified)
inactive: [4] 104 % of control | [5] 100 % of control | dose: 100.0 mg/kg/injection, vehicle: saline 100 % of control | dose: 200.0 mg/kg/injection, vehicle: saline 92 % of control | dose: 400.0 mg/kg/injection, vehicle: saline 97 % of control

N#C/C(=C\c1c[nH]c2ccccc12)C(N)=O
inactive: [7] 108 % of control | [8] 108 % of control | dose: 400.0 mg/kg/injection, vehicle: saline with Tween-80 108 % of control

O=C(Nc1ccc(C(=O)O)cc1)Nc1nccs1
inactive: [6] 113 % of control | dose: 100.0 mg/kg/injection, vehicle: distilled water + Tween-80 113 % of control | dose: 200.0 mg/kg/injection, vehicle: distilled water + Tween-80 113 % of control

C[CH2][Pb]([CH2]C)([CH2]C)[O][As](=O)(O)c1ccc(N)cc1
inactive: dose: 1.5 mg/kg/injection, vehicle: saline 98 % of control | dose: 3.0 mg/kg/injection, vehicle: saline 96 % of control

CC(C)(C)OC(=O)NC(Cc1ccc(OCc2c(Cl)cccc2Cl)cc1)C(=O)O (stereo unspecified)
inactive: dose: 25.0 mg/kg/injection, vehicle: saline with Tween-80 101 % of control | dose: 50.0 mg/kg/injection, vehicle: saline with Tween-80 104 % of control | [7] 86 % of control

C1CC[N-]CC1.C1CC[N-]CC1.C1CC[N-]CC1.C1CC[N-]CC1.[Cl][Co][Cl]
inactive: dose: 37.5 mg/kg/injection, vehicle: saline with Tween-80 103 % of control | dose: 75.0 mg/kg/injection, vehicle: saline with Tween-80 87 % of control

CC(=O)OCc1cc(=O)n(C)c2c3c4c(cc12)c(C)cc(=O)n4CO3
inactive: dose: 6.25 mg/kg/injection, vehicle: Klucel (hydroxypropylcellulose) (HPC) 122 % of control | dose: 12.5 mg/kg/injection, vehicle: Klucel (hydroxypropylcellulose) (HPC) 120 % of control | dose: 25.0 mg/kg/injection, vehicle: Klucel (hydroxypropylcellulose) (HPC) 121 % of control

ClC1(c2ccccc2)c2ccc(Br)cc2-c2cc(Br)ccc21
inactive: [7] 89 % of control | [8] 92 % of control
